The CheMixHub ionic liquid set

Assay: xn = mol fraction of the nth substance listed
Conditions: 100 kPa

CCCCCCCC[n+]1ccccc1.[Br-] + CC(C)C[C@H](NC(=O)CN)C(=O)O + O
Conditions | electrical conductivity [S/m]
298.15 K, x2 = 0.0008991, x1 = 0.001214 | 0.48
298.15 K, x2 = 0.0008996, x1 = 0.0007137 | 0.314
298.15 K, x2 = 0.001788, x1 = 0.005807 | 1.46
298.15 K, x2 = 0.001789, x1 = 0.005198 | 1.36
298.15 K, x2 = 0.001789, x1 = 0.005513 | 1.41
298.15 K, x2 = 0.00179, x1 = 0.004869 | 1.31
298.15 K, x2 = 0.001791, x1 = 0.004088 | 1.17
298.15 K, x2 = 0.001791, x1 = 0.004501 | 1.25
298.15 K, x2 = 0.001792, x1 = 0.003637 | 1.09
298.15 K, x2 = 0.001793, x1 = 0.003149 | 0.978
298.15 K, x2 = 0.001794, x1 = 0.002603 | 0.849
298.15 K, x2 = 0.001795, x1 = 0.002003 | 0.689
298.15 K, x2 = 0.001796, x1 = 0.001632 | 0.585
298.15 K, x2 = 0.001797, x1 = 0.0008258 | 0.341
298.15 K, x2 = 0.001797, x1 = 0.001246 | 0.469
303.15 K, x2 = 0.0008948, x1 = 0.005952 | 1.67
303.15 K, x2 = 0.0008949, x1 = 0.005839 | 1.65
303.15 K, x2 = 0.0008952, x1 = 0.00555 | 1.6
303.15 K, x2 = 0.0008955, x1 = 0.005219 | 1.54
303.15 K, x2 = 0.0008958, x1 = 0.00487 | 1.49
303.15 K, x2 = 0.0008961, x1 = 0.004507 | 1.43
303.15 K, x2 = 0.0008965, x1 = 0.004087 | 1.34
303.15 K, x2 = 0.0008969, x1 = 0.003621 | 1.24
303.15 K, x2 = 0.0008973, x1 = 0.003172 | 1.12
303.15 K, x2 = 0.0008978, x1 = 0.002616 | 0.97
303.15 K, x2 = 0.0008984, x1 = 0.001999 | 0.789
303.15 K, x2 = 0.0008987, x1 = 0.001608 | 0.66
303.15 K, x2 = 0.0008991, x1 = 0.001214 | 0.531
303.15 K, x2 = 0.0008996, x1 = 0.0007137 | 0.347
303.15 K, x2 = 0.001789, x1 = 0.005196 | 1.52
303.15 K, x2 = 0.001789, x1 = 0.005509 | 1.58
303.15 K, x2 = 0.00179, x1 = 0.004867 | 1.46
303.15 K, x2 = 0.001791, x1 = 0.004088 | 1.31
303.15 K, x2 = 0.001791, x1 = 0.004501 | 1.4
303.15 K, x2 = 0.001792, x1 = 0.003637 | 1.21
303.15 K, x2 = 0.001793, x1 = 0.003148 | 1.09
303.15 K, x2 = 0.001794, x1 = 0.002601 | 0.944
303.15 K, x2 = 0.001795, x1 = 0.002003 | 0.768
303.15 K, x2 = 0.001796, x1 = 0.001632 | 0.65
303.15 K, x2 = 0.001797, x1 = 0.0008258 | 0.377
303.15 K, x2 = 0.001797, x1 = 0.001246 | 0.521
308.15 K, x2 = 0.0008948, x1 = 0.005949 | 1.85
308.15 K, x2 = 0.0008949, x1 = 0.005837 | 1.83
308.15 K, x2 = 0.0008952, x1 = 0.005548 | 1.78
308.15 K, x2 = 0.0008955, x1 = 0.005217 | 1.71
308.15 K, x2 = 0.0008958, x1 = 0.004868 | 1.65
308.15 K, x2 = 0.0008961, x1 = 0.004505 | 1.57
308.15 K, x2 = 0.0008965, x1 = 0.004085 | 1.49
308.15 K, x2 = 0.0008969, x1 = 0.003621 | 1.36
308.15 K, x2 = 0.0008973, x1 = 0.003172 | 1.23
308.15 K, x2 = 0.0008978, x1 = 0.002614 | 1.06
308.15 K, x2 = 0.0008984, x1 = 0.001999 | 0.852
308.15 K, x2 = 0.0008987, x1 = 0.001608 | 0.718
308.15 K, x2 = 0.0008991, x1 = 0.001214 | 0.577
308.15 K, x2 = 0.0008996, x1 = 0.0007137 | 0.379
308.15 K, x2 = 0.001789, x1 = 0.005194 | 1.69
308.15 K, x2 = 0.001789, x1 = 0.005508 | 1.75
308.15 K, x2 = 0.00179, x1 = 0.004866 | 1.63
308.15 K, x2 = 0.001791, x1 = 0.004086 | 1.46
308.15 K, x2 = 0.001791, x1 = 0.004499 | 1.55
308.15 K, x2 = 0.001792, x1 = 0.003635 | 1.33
308.15 K, x2 = 0.001793, x1 = 0.003148 | 1.21
308.15 K, x2 = 0.001794, x1 = 0.002601 | 1.04
308.15 K, x2 = 0.001795, x1 = 0.002003 | 0.843
308.15 K, x2 = 0.001796, x1 = 0.00163 | 0.713
308.15 K, x2 = 0.001797, x1 = 0.0008258 | 0.415
308.15 K, x2 = 0.001797, x1 = 0.001246 | 0.576
